Common to all, as to assay: relative viability (nuclei count vs DMSO), 5 days (fraction); higher = more cells survive
Compound in one experiment: COC1=C(C=C(C=C1)C2=CC3=NC=CN3C(=N2)NC4=C(C=CC=N4)C(=O)N)OC [BAY61-3606]
Put shortly: (§1)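 Cells of lung cancer lines were placed in 1536-well plates and kept overnight at 37 °C. Pinning then delivered five library-drug doses (not always all listed), spaced by √10, onto plates anchored with vehicle, and the cells were left 5 days without changing medium. One step fixed, permeabilised and stained them with Hoechst, and MetaXpress counted nuclei in 4× images. Viability, as a median over plates, is treated-well nuclei divided by vehicle-well nuclei, with acceptance only at control CV below 25% and at least one doubling.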

Compound in a further experiment: COc1cccc2c1C(=O)c1c(O)c3c(c(O)c1C2=O)C[C@@](O)(C(=O)CO)C[C@@H]3O[C@H]1C[C@H](N)[C@H](O)[C@H](C)O1 [Doxorubicin]
Put shortly: as §1

Compound in the experiment “Doxorubicin + Navitoclax”: COc1cccc2c1C(=O)c1c(O)c3c(c(O)c1C2=O)C[C@@](O)(C(=O)CO)C[C@@H]3O[C@H]1C[C@H](N)[C@H](O)[C@H](C)O1 [Doxorubicin] + CC1(C)CCC(c2ccc(Cl)cc2)=C(CN2CCN(c3ccc(C(=O)NS(=O)(=O)c4ccc(N[C@H](CCN5CCOCC5)CSc5ccccc5)c(S(=O)(=O)C(F)(F)F)c4)cc3)CC2)C1 [Navitoclax] (partner 0.5 µM)
Put shortly:
(§2)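 Relative viability equals treated-well nuclei counts divided by vehicle-well nuclei counts. Counts came from 4× images of lung cancer cell lines grown in 1536-well plates for 5 days after pin-tool dosing on the day after seeding. Dosing used one drug alone or a fixed anchor-drug dose plus five library-drug doses (not always all listed) in √10 steps, and values are medians of duplicate plates.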

Compound in the experiment “BAY61-3606 + Trametinib”: COC1=C(C=C(C=C1)C2=CC3=NC=CN3C(=N2)NC4=C(C=CC=N4)C(=O)N)OC [BAY61-3606] + CC(=O)Nc1cccc(-n2c(=O)n(C3CC3)c(=O)c3c(Nc4ccc(I)cc4F)n(C)c(=O)c(C)c32)c1 [Trametinib] (partner 0.02 µM)
Put shortly:
as §2

Take NCI-H1395: the relative viability is 1.02 with BAY61-3606 (0.02 µM); 0.811 with BAY61-3606 (0.06325 µM); 0.826 with BAY61-3606 (0.2 µM); 0.895 with BAY61-3606 (0.6325 µM); 0.811 with BAY61-3606 (2 µM); 0.919 with Doxorubicin (0.001 µM). The relative viability with Doxorubicin (0.003162 µM) was found to be 1.05; with Doxorubicin (0.01 µM), 1.02; in the experiment with Doxorubicin (0.03162 µM), 0.891; with Doxorubicin (0.1 µM), 0.629; with Doxorubicin + Navitoclax (first compound 0.001 µM), 0.992; with Doxorubicin + Navitoclax (first compound 0.003162 µM), 1. Moreover, the relative viability with Doxorubicin + Navitoclax (first compound 0.01 µM) came out at 1.07; with Doxorubicin + Navitoclax (first compound 0.03162 µM) it was 0.861; with Doxorubicin + Navitoclax (first compound 0.1 µM) it was 0.898; in the experiment with BAY61-3606 + Trametinib (first compound 0.02 µM), 1.06; in the experiment with BAY61-3606 + Trametinib (first compound 0.06325 µM), 1.07; with BAY61-3606 + Trametinib (first compound 0.2 µM) it was 0.964. Also, the relative viability was 1.02 with BAY61-3606 + Trametinib (first compound 0.6325 µM) and 0.95 with BAY61-3606 + Trametinib (first compound 2 µM).

On to LC-2-ad, for which the relative viability was determined as 1.07 with BAY61-3606 (0.02 µM); 1.01 with BAY61-3606 (0.06325 µM); 0.932 with BAY61-3606 (0.2 µM); 1.04 with BAY61-3606 (0.6325 µM); 0.841 with BAY61-3606 (2 µM); 0.883 with Doxorubicin (0.001 µM). Further, the relative viability with Doxorubicin (0.003162 µM) was found to be 0.909; with Doxorubicin (0.01 µM) it was 0.948; with Doxorubicin (0.03162 µM), 0.943; with Doxorubicin (0.1 µM), 0.793; with Doxorubicin + Navitoclax (first compound 0.001 µM), 0.386; with Doxorubicin + Navitoclax (first compound 0.003162 µM), 0.384. The relative viability with Doxorubicin + Navitoclax (first compound 0.01 µM) was found to be 0.567; in the experiment with Doxorubicin + Navitoclax (first compound 0.03162 µM) it was 0.496; in the experiment with Doxorubicin + Navitoclax (first compound 0.1 µM), 0.506; with BAY61-3606 + Trametinib (first compound 0.02 µM), 0.911; with BAY61-3606 + Trametinib (first compound 0.06325 µM), 0.961; with BAY61-3606 + Trametinib (first compound 0.2 µM), 0.979. Besides, the relative viability with BAY61-3606 + Trametinib (first compound 0.6325 µM) was found to be 0.942; in the experiment with BAY61-3606 + Trametinib (first compound 2 µM), 0.902.

For the cell line SK-MES-1, the relative viability in the experiment with BAY61-3606 (0.02 µM) amounted to 1.02; with BAY61-3606 (0.06325 µM) it was 0.994; with BAY61-3606 (0.2 µM), 0.974; in the experiment with BAY61-3606 (0.6325 µM) it was 1.06; with BAY61-3606 (2 µM) it was 0.891; in the experiment with Doxorubicin (0.001 µM), 0.997. In addition, the relative viability with Doxorubicin (0.003162 µM) turned out to be 1.06; with Doxorubicin (0.01 µM), 0.906; with Doxorubicin (0.03162 µM), 0.594; with Doxorubicin (0.1 µM), 0.542; in the experiment with Doxorubicin + Navitoclax (first compound 0.001 µM) it was 1.28; with Doxorubicin + Navitoclax (first compound 0.003162 µM), 0.745. Moreover, the relative viability with Doxorubicin + Navitoclax (first compound 0.01 µM) amounted to 1.09; in the experiment with Doxorubicin + Navitoclax (first compound 0.03162 µM), 1.01; in the experiment with Doxorubicin + Navitoclax (first compound 0.1 µM), 0.76; in the experiment with BAY61-3606 + Trametinib (first compound 0.02 µM), 0.619; with BAY61-3606 + Trametinib (first compound 0.06325 µM), 0.541; in the experiment with BAY61-3606 + Trametinib (first compound 0.2 µM) it was 0.518. Further, the figures for the relative viability with BAY61-3606 + Trametinib (first compound 0.6325 µM) and with BAY61-3606 + Trametinib (first compound 2 µM) were 0.579 and 0.503, respectively.

In the case of SW 1573, the relative viability with BAY61-3606 (0.02 µM) is 1.04; with BAY61-3606 (0.06325 µM), 1.03; in the experiment with BAY61-3606 (0.2 µM), 0.905; with BAY61-3606 (0.6325 µM), 1; in the experiment with BAY61-3606 (2 µM) it was 0.659; in the experiment with Doxorubicin (0.001 µM), 0.876. Moreover, the relative viability was 0.914 with Doxorubicin (0.003162 µM); 0.539 in the experiment with Doxorubicin (0.01 µM); 0.364 with Doxorubicin (0.03162 µM); 0.292 in the experiment with Doxorubicin (0.1 µM); 0.849 in the experiment with Doxorubicin + Navitoclax (first compound 0.001 µM); 1.09 with Doxorubicin + Navitoclax (first compound 0.003162 µM). For the same cell line, the relative viability was 1.04 with Doxorubicin + Navitoclax (first compound 0.01 µM); 0.526 with Doxorubicin + Navitoclax (first compound 0.03162 µM); 0.196 in the experiment with Doxorubicin + Navitoclax (first compound 0.1 µM); 0.566 with BAY61-3606 + Trametinib (first compound 0.02 µM); 0.668 with BAY61-3606 + Trametinib (first compound 0.06325 µM); 0.533 in the experiment with BAY61-3606 + Trametinib (first compound 0.2 µM). Besides, the relative viability amounted to 0.578 in the experiment with BAY61-3606 + Trametinib (first compound 0.6325 µM) and 0.341 with BAY61-3606 + Trametinib (first compound 2 µM).

As to CAL-12T, the relative viability came to 1.02 in the experiment with BAY61-3606 (0.02 µM); 1.07 with BAY61-3606 (0.06325 µM); 0.938 with BAY61-3606 (0.2 µM); 0.99 in the experiment with BAY61-3606 (0.6325 µM); 0.628 with BAY61-3606 (2 µM); 0.973 with Doxorubicin (0.001 µM). The relative viability in the experiment with Doxorubicin (0.003162 µM) turned out to be 1.05; in the experiment with Doxorubicin (0.01 µM) it was 0.926; in the experiment with Doxorubicin (0.03162 µM), 0.541; with Doxorubicin (0.1 µM), 0.349; with Doxorubicin + Navitoclax (first compound 0.001 µM), 1.09; with Doxorubicin + Navitoclax (first compound 0.003162 µM), 1.16. In addition, the relative viability in the experiment with Doxorubicin + Navitoclax (first compound 0.01 µM) is 1.24; with Doxorubicin + Navitoclax (first compound 0.03162 µM), 0.423; with Doxorubicin + Navitoclax (first compound 0.1 µM), 0.182; with BAY61-3606 + Trametinib (first compound 0.02 µM), 0.359; in the experiment with BAY61-3606 + Trametinib (first compound 0.06325 µM), 0.372; in the experiment with BAY61-3606 + Trametinib (first compound 0.2 µM) it was 0.346. The values for the relative viability with BAY61-3606 + Trametinib (first compound 0.6325 µM) and with BAY61-3606 + Trametinib (first compound 2 µM) were 0.347 and 0.229, respectively.

(Values after the supplement of paper PMC10307832.)
